The supplement of paper PMC10307832

What was measured:
Test in all cases: relative viability (nuclei count vs DMSO), 5 days (fraction); higher = more cells survive
[1] = compound: CN(C)CC1=CC(=CC=C1)N=C(C2=CC=CC=C2)C3=C(NC4=C3C=CC(=C4)C(=O)N(C)C)O + CC(=O)Nc1cccc(-n2c(=O)n(C3CC3)c(=O)c3c(Nc4ccc(I)cc4F)n(C)c(=O)c(C)c32)c1 [Trametinib] (partner 0.02 µM)
Outline: (§1)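 Lung cancer cell lines in 1536-well plates got either a single drug or a fixed anchor-drug dose together with five library-drug doses (not always all listed) in √10 steps, by pin tool, on the day after seeding. Nuclei were counted after 5 days, and relative viability is the treated-to-vehicle ratio of nuclei counts. Values are medians of duplicate plates.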

[2] = compound: CN(C)CC1=CC(=CC=C1)N=C(C2=CC=CC=C2)C3=C(NC4=C3C=CC(=C4)C(=O)N(C)C)O + N=C(N)NC(=N)NCCc1ccccc1 [Phenformin] (partner 250 µM)
Outline: as §1

[3] = compound: CN(C)CC1=CC(=CC=C1)N=C(C2=CC=CC=C2)C3=C(NC4=C3C=CC(=C4)C(=O)N(C)C)O + Nc1nc2[nH]cc(CCc3ccc(C(=O)N[C@@H](CCC(=O)O)C(=O)O)cc3)c2c(=O)[nH]1 [Pemetrexed] (partner 0.2 µM)
Outline: as §1

[4] = compound: CN(C)CC1=CC(=CC=C1)N=C(C2=CC=CC=C2)C3=C(NC4=C3C=CC(=C4)C(=O)N(C)C)O + CC1(C)CCC(c2ccc(Cl)cc2)=C(CN2CCN(c3ccc(C(=O)NS(=O)(=O)c4ccc(N[C@H](CCN5CCOCC5)CSc5ccccc5)c(S(=O)(=O)C(F)(F)F)c4)cc3)CC2)C1 [Navitoclax] (partner 0.5 µM)
Outline: as §1

Cell Line | relative viability ([1]; first compound 0.08 µM) | relative viability ([1]; first compound 0.253 µM) | relative viability ([1]; first compound 0.8 µM) | relative viability ([1]; first compound 2.53 µM) | relative viability ([1]; first compound 8 µM) | relative viability ([2]; first compound 0.08 µM) | relative viability ([2]; first compound 0.253 µM) | relative viability ([2]; first compound 0.8 µM) | relative viability ([2]; first compound 2.53 µM) | relative viability ([2]; first compound 8 µM) | relative viability ([3]; first compound 0.08 µM) | relative viability ([3]; first compound 0.253 µM) | relative viability ([3]; first compound 0.8 µM) | relative viability ([3]; first compound 2.53 µM) | relative viability ([3]; first compound 8 µM) | relative viability ([4]; first compound 0.08 µM) | relative viability ([4]; first compound 0.253 µM) | relative viability ([4]; first compound 0.8 µM) | relative viability ([4]; first compound 2.53 µM) | relative viability ([4]; first compound 8 µM)
PC-14 | 0.932 | 0.904 | 0.968 | 0.8 | 0.76 | 0.572 | 0.545 | 0.617 | 0.602 | 0.734 | 0.13 | 0.13 | 0.147 | 0.15 | 0.135 | 1.08 | 1.03 | 0.965 | 1.03 | 1.07
NCI-H2126 | 0.6 | 0.59 | 0.484 | 0.602 | 0.55 | 0.522 | 0.553 | 0.542 | 0.511 | 0.557 | 0.677 | 0.706 | 0.708 | 0.639 | 0.626 | 0.899 | 0.898 | 0.821 | 0.913 | 0.892
NCI-H1395 | 0.983 | 0.96 | 1.16 | 1 | 0.892 | 0.377 | 0.488 | 0.465 | 0.417 | 0.417 | 0.915 | 0.931 | 0.992 | 0.763 | 0.834 | 1.23 | 1.13 | 1.22 | 0.965 | 1.12
NCI-H1648 | 0.482 | 0.368 |  | 0.534 | 0.554 |  |  |  |  |  | 0.717 | 0.758 |  | 0.739 | 0.668 |  |  |  |  | 
NCI-H596 | 0.809 | 0.873 | 0.921 | 0.821 | 0.723 | 0.693 | 0.625 | 0.769 | 0.806 | 0.742 | 0.493 | 0.554 | 0.484 | 0.502 | 0.521 | 0.967 | 0.93 | 0.911 | 0.977 | 0.83
A549 |  |  |  |  |  | 0.202 | 0.157 | 0.124 | 0.0946 | 0.16 |  |  |  |  |  | 1.23 | 1.24 | 1.19 | 1.2 | 1.2
LCLC-103H | 0.707 | 0.623 | 0.642 | 0.675 | 0.619 | 0.347 | 0.368 | 0.304 | 0.337 | 0.291 | 0.47 | 0.442 | 0.555 | 0.458 | 0.456 |  |  |  |  | 
EMC-BAC-2 | 0.942 | 0.965 | 0.886 | 0.881 | 0.969 | 0.496 | 0.506 | 0.504 | 0.478 | 0.55 | 0.437 | 0.445 | 0.582 | 0.435 | 0.508 | 1.13 | 1.15 | 1.17 | 1.18 | 1.1
EBC-1 |  |  |  |  |  |  |  |  |  |  |  |  |  |  |  | 0.459 | 0.411 | 0.539 | 0.522 | 0.518
NCI-H1915 | 0.298 | 0.278 | 0.32 | 0.289 | 0.265 | 0.368 | 0.35 | 0.383 | 0.361 | 0.352 | 0.51 | 0.446 | 0.629 | 0.513 | 0.417 | 0.819 | 0.75 | 0.782 | 0.791 | 0.805
